Data from patent US11236060B2, “Method for producing solid dispersion containing nobiletin” (KAO CORPORATION, priority 2018, dated 2022).

Assay: Solubility in 25° C. water of the poorly water-soluble substance
Type: physicochemical
Settings: poorly water-soluble substance itself (ingredient)

| SMILES | Solubility in 25° C. water |
| --- | --- |
| O=c1oc2c(O)c(O)cc3c(=O)oc4c(O)c(O)cc1c4c23 [Ellagic acid, ellagic acid] | 4 ppm |
| COc1ccc(-c2cc(=O)c3c(OC)c(OC)c(OC)c(OC)c3o2)cc1OC [Nobiletin, 3′,4′,5,6,7,8-hexamethoxyflavone] | 1 ppm |
